Test results as given in patent publication US20240262791A1, “B[…] […] AMINO ACIDS” (priority 2021, published 2024).

How the values were obtained:
[1] = healthy volunteers in phase I trial, patients in phase II trial; cited from earlier work
[2] = SFY crosslinking of protein residues and RNA in cells; type: cell-based; details: E. coli and HEK293T cells
Experimental: FIG. 4B: Fluorescence confocal images HEK293 cells expressing EGFP(40TAG) gene and the Mm-tRNA^Pyl/MmSFYRS with and without 1 mM SFY. FIG. 4C: Flow cytometric analysis of SFY incorporation into EGFP(40TAG) in HEK293 cells using Ma-tRNA^Pyl/MaSFYRS. […] FIGS. 4E-4F: Analysis of crosslinking of Afb(24SFY) with MBP-Z(7X) in E. coli cells. Western blot of E. coli cell lysate (FIG. 4E); SDS-PAGE of proteins His-tag purified from E. coli (FIG. 4F). Maltose binding protein (MBP) was fused to the N-terminus of Z protein to better separate Z from Afb in size. […] FIG. 4H: Western blot analysis of lysate of HEK293T cells expressing GST(103SFY-107X). X is the target residue indicated. FIG. 4I: Western blot analysis E. coli cells expressing Hfq with SFY incorporated at site 25 or 49. Cell lysate samples were treated with or without RNase before loading, and an anti-His antibody was used to detect the 6×His tag appended at the C-terminus of expressed Hfq.

HEK293T cells = type: cell-based; details: 0 to 1 mM SFY, 24-48 h
Experimental: 2×10^4 cells/well of HEK293T cells were seeded in a 96-well plate. On the next day, the media were replaced with fresh DMEM media supplemented with 0, 0.0625, 0.125, 0.25, 0.5, or 1 mM of SFY. The SFY-treated and control cells were cultured for an additional 24-48 h at 37° C. and then analyzed with CellTiter-Blue® Cell Viability Assay following the manufacturer's instructions.

[3] = test system: nucleoside monophosphates (NMPs: AMP, UMP, CMP, or GMP); test: In vitro incubations of NMPs and SFY; details: 50 mM SFY, 50 mM NMP, 37° C.
Experimental: In addition, to check if SFY could cross-link all four nucleotides, we incubated 50 mM SFY with 50 mM different nucleoside monophosphates (NMPs: AMP, UMP, CMP, or GMP) at 37° C. for 16 hours.
50 mM SFY (HCl salt) and 50 mM NMP was incubated in DI H2O. 50 mM NaOH was added to neutralize the HCl salt. The mixture was incubated at 37° C. for 48 h. Then the reaction mixture was diluted for 50 times in H2O/acetonitrile (50/50, v/v, with 0.1% trifluoracetic acid) and subjected to mass spectrum analysis using positive mode. Mass spectrum analysis was performed on SCIEX MDS, 3200 Q TRAP system.

GST = test: Cross-linking of GST-103SFY-107X in live mammalian cells; type: cell-based; details: SFY at site 103 of GST, residue 107 varied, HEK293T cells
Experimental: […] of pcDNA-GST-103TAG-107X (X=A, H, Y or K)^3 and […] of pNEU-MmSFYRS-4xU6M15 were co-transfected into target cells using 5 μL of lipofectamine 2000 following the manufacturer's instructions. Six hours post transfection, the media were replaced with complete DMEM media with or without 1 mM SFY. The cells were incubated at 37° C. for additional 48 h, collected, and applied for immunoblot analysis.

WT Spike RBD = target: T1, WT Spike RBD (Severe acute respiratory syndrome coronavirus 2, UniProt P0DTC2); type: biochemical, SARS-CoV-2
T1 construct: SARS-CoV-2 spike protein, RBD, 6His tag (S protein) was purchased from ACRObiosystems (#SRD-C52H3); purchased ACRObiosystems #SRD-C52H3

Afb7X = Afb7X and MBP-Z(24F-FSY) cross-linking; type: biochemical; details: MBP-Z(24F-FSY) with Afb7X, PBS pH 7.4, 37° C., 12 h
Experimental: We also introduced F-FSY into the maltose binding protein (MBP) fused Z protein at position 24 (MBP-Z(24F-FSY)). The purified MBP-Z(24F-FSY) was analyzed by electrospray ionization time-of-flight mass spectrometry (ESI-TOF MS). A peak observed at 50829 Da corresponds to intact MBP-Z containing F-FSY at site 24 (data not shown). We then tested the reactivities of F-FSY towards amino acid residue using the binding complex of MBP-Z and the Zspa affibody (Afb). Upon Afb-Z binding, F-FSY would be place in close proximity with the residue at position 7 of Afb (Afb7X) and would form a covalent bond with the targeting residue, causing protein-protein cross-linking.
0.5 mg/ml Afb7X and 1 mg/ml MBP-Z(24F-FSY) were incubated in PBS (pH 7.4) at 37° C. for 12 h, after which 1 j.tL reaction solution was extracted and mixed with 10 j.tL Laemmli loading buffer. The mixture was heated to 95° C. for 10 min and then loaded for SDS-PAGE, after which the gel was stained with Coomassie blue and imaged with ChemiDoc™ MP imaging system (Bio-rad).

[4] = test system: HeLa-EGFP (182TAG) reporter cells; test: Genetic incorporation of mFSY in HeLa-EGFP (182TAG) reporter cells; type: cell-based; details: no mFSY added or 1 mM mFSY added
From the text: FIGS. 12A-12C: Genetic incorporation of mFSY into proteins in mammalian cells. FIG. 12A: FACS analysis of mFSY incorporation into HeLa-EGFP (182TAG) cells. Negative control cells were either not transfected with any plasmid or were not treated with mFSY. FACS data is representative of three biological replicates. FIG. 12B: Bar graph showing total EGFP fluorescence percentage from FACS data. Error bar: s.d., n=3. FIG. 12C: Fluorescence microscopy and brightfield images of HeLa-EGFP (182TAG) reporter cells under two conditions: no mFSY added or 1 mM mFSY added.

Compound: rhACE2
- safety and tolerability [1]: safe and well tolerated

Compound: COc1ccc(CC(N)C(=O)O)cc1S(=O)(=O)F (centres unmarked) [SFY, o-sulfonyl fluoride-O-methyltyrosine]
- crosslinking capability of SFY [2]: allows crosslinking of His, Tyr, Lys residues in protein and of RNA in cells
- toxicity to HEK293T cells (HEK293T cells): did not observe obvious toxicity
- cross-linking adducts with NMPs detected by MS [3]: Cross-linking adducts of SFY with all four NMPs were detected
- residues reacting with SFY placed in proximity (GST): react with His, Tyr, and Lys

Compound: NC(Cc1ccc(OS(=O)(=O)F)c(F)c1)C(=O)O (centres unmarked) [FFY]
- PERx reaction rate over FSY in the mNB6 system (WT Spike RBD): 240%
- residues forming a covalent bond with F-FSY (Afb7X): form a covalent bond with Lys, His and Tyr

Compound: NC(Cc1cccc(OS(=O)(=O)F)c1)C(=O)O [mFSY, meta-fluorosulfate-L-tyrosine]
- EGFP fluorescence (mFSY incorporation) [4]: Fluorescence is only seen after the addition of mFSY
